According to patent publication US8957093B2, “N-biphenylmethylindole modulators of PPARG” (The Scripps Research Institute, priority 2011, dated 2015):
Where two headings read alike, the source gives them in different places.

Key:
GST-PPARG-LBD = GST-PPARG-LBD (Homo sapiens (Human), UniProt P37231); experiment: Lanthascreen PPARG competitive binding assay (Invitrogen, TR-FRET); settings: Lanthascreen competitive binding; NA = not active; inc = incomplete curve; read-out: IC50 (nM) Lantha
Summary of the method: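 TR-FRET competitive binding of GST-PPARG-LBD with 5 nM Tb-GST-antibody and 5 nM Fluormone Pan-PPAR Green tracer, in TR-FRET buffer C. Compound serially diluted from 10 μM, 2 h dark incubation, in triplicate. Readout is 520/490 nm emission ratio (340 nm excitation), expressed as fold change over 2% DMSO control.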

[1] = molecular target: Gal-4-PPAR (human PPAR LBD fused to GAL4 DNA-binding domain) (Homo sapiens (Human), UniProt P37231); experiment: GAL4-PPARG LBD / UAS-luciferase transactivation assay in HEK 293T cells; format: cell-based
[2] = GAL4 transactivation, HEK 293T cells; NA = not active; read-out: EC50 (nM) GAL4
[3] = HEK-293T, 18 h, read-out: % transactivation at 10 μM (GAL4)
[4] = HEK-293T, 18 h; read-out: % transactivation at 10 μM (GAL4)

Gal-4-PPAR (human PPAR LBD fused to GAL4 DNA-binding domain), sequence (P37231 238-503): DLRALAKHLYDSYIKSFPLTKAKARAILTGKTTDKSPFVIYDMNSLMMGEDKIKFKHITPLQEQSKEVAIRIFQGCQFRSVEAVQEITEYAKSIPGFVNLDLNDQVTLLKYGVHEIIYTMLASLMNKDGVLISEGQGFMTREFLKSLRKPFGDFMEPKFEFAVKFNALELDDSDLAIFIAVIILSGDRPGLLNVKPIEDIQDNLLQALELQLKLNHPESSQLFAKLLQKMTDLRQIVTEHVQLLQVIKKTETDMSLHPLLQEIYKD
GST-PPARG-LBD, sequence (P37231 238-503): as above

Structure (SMILES)	IC50 (GST-PPARG-LBD)	EC50 [1, 2]	activation at 10 µM [1, 3]	activation at 10 µM [1, 4]
Cc1c(C)n(Cc2ccc(-c3ccccc3C(=O)O)cc2)c2ccc(C(=O)N[C@@H](C)c3ccccc3Cl)cc12 [Example 159, (S)-4′-((5-((1-(2-chlorophenyl)ethyl)carbamoyl)-2,3-dimethyl-1H-indol-1-yl)methyl)-[1,1′-biphenyl]-2-carboxylic acid]	< 1 nM	152 nM	30%	
Cc1c(C)n(Cc2ccc(-c3ccccc3C(=O)O)cc2)c2ccc(C(=O)N[C@@H](C)c3ccccc3F)cc12 [Example 160, (S)-4′-((5-((1-(2-fluorophenyl)ethyl)carbamoyl)-2,3-dimethyl-1H-indol-1-yl)methyl)-[1,1′-biphenyl]-2-carboxylic acid]	7 nM	383 nM	35%	
COc1cccc([C@@H](C)NC(=O)c2ccc3c(c2)c(C)c(C)n3Cc2ccc(-c3ccccc3C(=O)O)cc2)c1 [Example 161, (R)-4′-((5-((1-(3-methoxyphenyl)ethyl)carbamoyl)-2,3-dimethyl-1H-indol-1-yl)methyl)-[1,1′-biphenyl]-2-carboxylic acid]	2 nM	55 nM		30%
Cc1c(C)n(Cc2ccc(-c3ccccc3C(=O)O)cc2)c2ccc(C(=O)NCc3ccc(F)cc3F)cc12 [Example 164, 4′-((5-((2,4-difluorobenzyl)carbamoyl)-2,3-dimethyl-1H-indol-1-yl)methyl)-[1,1′-biphenyl]-2-carboxylic acid]	19 nM	987 nM	30%	
Cc1c(C)n(Cc2ccc(-c3ccccc3C(=O)O)cc2)c2ccc(C(=O)NCc3ccc(Cl)cc3C(F)(F)F)cc12 [Example 165, 4′-((5-((4-chloro-2-(trifluoromethyl)benzyl)carbamoyl)-2,3-dimethyl-1H-indol-1-yl)methyl)-[1,1′-biphenyl]-2-carboxylic acid]	2 nM	507 nM		15%
Cc1c(C)n(Cc2ccc(-c3ccccc3C(=O)O)cc2)c2ccc(C(=O)N[C@H](C)c3ccncc3)cc12 [Example 169, (R)-4′-((2,3-dimethyl-5-((1-(pyridin-4-yl)ethyl)carbamoyl)-1H-indol-1-yl)methyl)-[1,1′-biphenyl]-2-carboxylic acid]	11 nM	608 nM		20%
Cc1c(C)n(Cc2ccc(-c3ccccc3C(=O)O)cc2)c2ccc(C(=O)N[C@@H](C)c3cccc(F)c3Cl)cc12 [Example 170, (S)-4′-((5-((1-(2-chloro-3-fluorophenyl)ethyl)carbamoyl)-2,3-dimethyl-1H-indol-1-yl)methyl)-[1,1′-biphenyl]-2-carboxylic acid]	4 nM	114 nM	50%	
Cc1c(C)n(Cc2ccc(-c3ccccc3C(=O)O)cc2)c2ccc(C(=O)N[C@H](C)c3cccc(Cl)c3Cl)cc12 [Example 171, (R)-4′-((5-((1-(2,3-dichlorophenyl)ethyl)carbamoyl)-2,3-dimethyl-1H-indol-1-yl)methyl)-[1,1′-biphenyl]-2-carboxylic acid]	5 nM	388 nM	10%	
Cc1c(C)n(Cc2ccc(-c3ccccc3C(=O)O)cc2)c2ccc(C(=O)N[C@@H](C)c3cc(C(F)(F)F)ccc3C(F)(F)F)cc12 [Example 172, (S)-4′-((5-((1-(2,5-bis(trifluoromethyl)phenyl)ethyl)carbamoyl)-2,3-dimethyl-1H-indol-1-yl)methyl)-[1,1′-biphenyl]-2-carboxylic acid]	9 nM	106 nM		8%
Cc1c(C)n(Cc2ccc(-c3ccccc3C(=O)O)cc2)c2ccc(C(=O)N[C@H](C)c3cc(C(F)(F)F)ccc3C(F)(F)F)cc12 [Example 173, (R)-4′-((5-((1-(2,5-bis(trifluoromethyl)phenyl)ethyl)carbamoyl)-2,3-dimethyl-1H-indol-1-yl)methyl)-[1,1′-biphenyl]-2-carboxylic acid]	4 nM	161 nM		1%
